Laboratory results: paper PMC8121805, “Discovery of first-in-class inhibitors of ASH1L histone methyltransferase with anti-leukemic activity” (Nature Communications, 2021)
“And” between values parts separate entries of the source, which are not always exact repeats. Identical values can stand only once.

Biological target: ASH1L (amino acids 2046–2330) (Homo sapiens, UniProt Q9NR48)
Experiment: Histone methyltransferase (HMT) assay
Experimental: The mixtures of ASH1L and compounds were incubated at room temperature for 1 h. […] The reaction was continued for 1 h at room temperature, then quenched by addition of 10% Trichloroacetic acid (TCA) and then transferred to 96-well filter plates (Millipore sigma, MSFBN6B), washed twice with 10% TCA and then once with 200-proof ethanol. After extensive drying, 70 µL of Microscint-O scintillant (PerkinElmer) was added and counts per minute (CPM) were measured using a MicroBeta microplate counter (PerkinElmer). Titration curves were plotted using Prism (GraphPad Prism 8.0.0.) and IC50 values were calculated.

`CN1CC(C(=O)NCc2ccc3c(-c4cccc(C(N)=O)c4)cn(C4CCN(S(=O)(=O)C(F)(F)F)CC4)c3c2)C1` [AS-nc] was tested, and the “reduced inhibitory activity (thioamide of AS-99 replaced with amide)” value was ~ 100 fold, the IC50 (IC50, HMT assay with nucleosomes as substrate, mean ± s.d. from two independent experiments) was 72 µM and the “% Ash1L activity” value (Log[compound] (M) -3) was 8.534% and 3.267%. The “% Ash1L activity” value (Log[compound] (M) -3.47712) was 48.6163% and 37.7254%, the “% Ash1L activity” value (Log[compound] (M) -3.95424) was 56.4006% and 63.2923% and the “% Ash1L activity” value (Log[compound] (M) -4.43136) was 67.1309% and 48.4913%. For the same compound, the “% Ash1L activity” value (Log[compound] (M) -4.90849) was 72.7906% and 62.8102%, the “% Ash1L activity” value (Log[compound] (M) -5.38561) was 70.7731% and 79.0573% and the “% Ash1L activity” value (Log[compound] (M) -5.86273) was 90.948% and 119.086%.
